Patent US20210283099A1, “CDC7 KINASE INHIBITORS AND USES THEREOF” (SLOAN-KETTERING INSTITUTE FOR CANCER RESEARCH, priority 2010, published 2021)

Tests used:
PhALL3.1 cells = assay: Caspase 3 fluorometric activity assay in G1 synchronized cells; type: cell-based, human; conditions: 10 hours following release of G1 synchronized cells
HeLa cells = assay: Caspase-3 activity in HeLa cells; type: cell-based, human; conditions: rescued by Bcl-XL overexpression and 10 micromolar Ac-DEVD-CHO
Experimental: FIGS. 12-14. Inhibition of Granaticin A Induced Caspase-3 Activity in HeLa cells. Growth curves in the presence of the indicated micromolar concentrations of granaticin A were performed and caspase-3 activity was measured following addition of a substrate that when cleaved by caspase-3 results in light emission which is quantitated by a fluorimeter (y-axis) as a function of time (x-axis).

A459 cells = assay: Nude mouse xenograft, non small-cell lung cancer; type: in vivo; conditions: 2.5 mg/kg/day continuous, osmotic diffusion pumps; sections at day 28
Experimental: FIG. 22A-22C. Granaticin B is Effective Against Multiple Solid Tumors: granaticin B is efficacious against mouse models of melanoma (FIG. 22A), non-small cell lung cancer (FIG. 22B), and ovarian cancer (FIG. 22C). For the ovarian cancer experiments, SCID-Beige mice were injected with 5 million OVCAR3 cells that had been transduced with a GFP-firefly luciferase expressing plasmid (Frattini, M. G. and Brentjens, R. J., unpublished data). These cells were then injected intraperitoneally into 4 cohorts of mice on Day 1. From days 7-14 the mice were injected daily with the indicated concentrations of granaticin B in the intraperitoneal space. […] Nude mice were treated with 2.5 mg/kg/day granaticin B in a continuous fashion using osmotic diffusion pumps. Sections of the treated xenografts are shown after euthanasia at day 28 and H&E staining.

JOKE-2 cells = assay: Trypan blue viability and caspase-3 assay; type: cell-based, human; conditions: 1 microM
Experimental: FIGS. 24A-24B. […] The JOKE-2 cell line was derived from a patient with Philadelphia chromosome positive Acute Lymphoblastic Leukemia (Ph-ALL). […] FIG. 24A: Joke-2 cells were grown in the presence of DMSO control or granaticin B (1 microM) for the indicated times and viability was measured after staining a cell sample in trypan blue (Sigma-Aldrich).

[1] = system: primary patient leukemia samples; assay: Inhibition of cellular proliferation, all primary patient leukemia samples; type: cell-based, human
Experimental: FIGS. 16A-16B. Granaticin A and Granaticin B inhibit multiple tumor types: The indicated cell lines and primary patient samples were tested against the compounds listed in standard cytotoxicity assays (12 point dose response using Alamar blue reduction as an indicator of cell viability). Assays were done in triplicate and IC50 determinations were run in 12-point serial dilutions from […] to 5 nM. […] These include ras and EGFR gatekeeper mutation containing cell lines in addition to p53 mutant cell lines and other known chemotherapy resistant cell lines. Specifically, this included multi-drug resistance phenotype (MDR-overexpressing) cell lines from multiple hematologic and solid tumor cell lines. Table 1 highlights a series of primary patient leukemia samples-both acute and chronic and treatment naïve and refractory tested against granaticins A and B and Derivatives 1 and 2 (see Examples).
Table 1 highlights a series of primary patient leukemia samples-both acute and chronic and treatment naïve and refractory and the effect of granaticin A, granaticin B, derivative 1, and derivative 2 to inhibit cellular proliferation. […]

SMILES: CC1OC2CC(O)C1(O)c1c(O)c3c(c(O)c12)C(=O)C1=C(C3=O)[C@H](C)O[C@H]2CC(=O)O[C@@H]12 (stereo partly shown) [Granaticin A, granaticin A]
- caspase 3 activity / apoptosis (PhALL3.1 cells): induces Caspase 3-mediated apoptosis
- caspase-3 activity (HeLa cells): activation of caspase-3 and apoptosis

SMILES: CC1OC2CC(O[C@H]3CC[C@H](O)[C@H](C)O3)C1(O)c1c(O)c3c(c(O)c12)C(=O)C1=C(C3=O)[C@H](C)O[C@H]2CC(=O)O[C@@H]12 (stereo partly shown) [Granaticin B, granaticin B]
- efficacy in mouse model of non-small cell lung cancer (A459 cells): efficacious
- caspase-3 activation (JOKE-2 cells): only activated in cells exposed to granaticin B
- effect on viability (trypan blue) (JOKE-2 cells): very effective
- activity relative to granaticin A ([1]; against all the samples tested): approximately one log
- range of inhibition of cellular proliferation ([1]; all the samples tested): low nanomolar range
